Where two headings read alike, the source gives them in different places. Marks after values point to notes of the source that are not given here.
Legend:
[1] = tested on: bovine vascular smooth muscle cells (bVSMCs); assay type: cell-based; conditions: 7 days; for Cell viability of bVSMCs after seven days (MTT signal, relative to control): mean of three experiments
Description: The toxicity of the identified compounds to bovine VSMCs was measured using the MTT assay, which measures the activity of dehydrogenase enzymes of live cells. This assay can pick up both cell death and proliferation.
Bovine VSMCs were seeded in 96 well plates and cultured in M199/20% FCS for 1 day. Then, the cells were incubated with inhibitor concentrations from 0.5 to 100 μM (in M199 medium+5% FBS). The cells were incubated with the inhibitors for 7 days; every 2-3 days the medium −/+inhibitors was exchanged. Then, the MTT assay was performed. The stock vehicle DMSO was tested at corresponding concentrations to the inhibitors at 0.1% DMSO or less.

[2] = tested on: human monocyte-macrophages (HMMs); assay: MTT toxicity assay, HMMs, seven days (Example 3); assay type: cell-based; conditions: 7 days; for Cell viability by MTT, percent of control: mean of three experiments
Description: A similar set of toxicity experiments was performed with human monocyte-macrophages (HMMs).

[3] = tested on: bovine vascular smooth muscle cells (bVSMCs); assay: Alizarin Red S staining, bVSMC GAD calcification model (Example 4); assay type: cell-based; conditions: GAD-treated bVSMCs, 10 μM, 7 d, versus no inhibitor
Description: (§1) For the bVSMCs a GAD medium (10 mM β-glycerophosphate/0.1 mM L-ascorbic acid-2-phosphate/10 nM dexamethasone) model was used to induce mineralization in bVSMCs. Accordingly, cells were seeded in tissue culture plates using M199/20% FCS culture medium and cultured overnight. The next day, cells were treated either with medium only (M199/5% FBS)+/−inhibitors, or with the GAD-medium (10 mM β-glycerophosphate/0.1 mM L-ascorbic acid-2-phosphate/[…] dexamethasone)+/−inhibitors.
Medium+/−inhibitors was exchanged every 2-3 days. Bovine VSMCs were incubated for 7 d prior to assessment.
The Alizarin Red S staining is a visual/histological stain for tissue calcium deposits. Cells are briefly fixed in 4% paraformaldehyde/PIPES buffer pH 7.2 and subsequently stained for 5 min with Alizarin Red S (2% Alizarin Red S/DIW pH 4.2). Excess stain is removed by washing in DIW. Calcium mineral deposits are stained a bright orange red.

[4] = tested on: bovine vascular smooth muscle cells (bVSMCs); assay: o-Cresolphthalein Ca2+ assay, bVSMC GAD calcification model (Examples 4 and 5); assay type: cell-based
Description: as §1
Medium+/−inhibitors was exchanged every 2-3 days. […]
The o-Cresolphthalein assay is a spectrophotometric method for measuring Ca^2+-concentrations in cell/tissue lysates. Following the calcification experiments, cells are briefly washed to remove medium and 100 […]1 of 0.1 N HCl is added to each well to dissolve any mineral deposits. Then, the Ca^2+-concentration of the samples is measured spectrophotometrically (at 570 nm) in the o-cresolphthalein assay with the help of a CaCl2 standard curve in a concentration range of ˜0.02-270 µg Ca^2+/ml.
The commercial BioRad DC protein assay is based on the Lowry method, aka reaction of proteins with a copper-tartrate complex and subsequent reaction with Folin's reagent. Following the calcification experiment, cells are briefly washed to remove medium and 100 µl of solubilisation solution (0.1 M NaOH/1% SDS/DIW) is added to each well to lyse the cells. The protein concentrations of the lysates are subsequently determined in the BioRad DC assay as per supplier's instructions using BSA (bovine serum albumin) as standard.
The in vitro model is the same as the model used in example 4; bovine vascular smooth muscle cells (bVSMCs) cultured so that they produce extracellular matrix, with the addition of the GAD medium (10 mM β-glycerophosphate/0.1 mM L-ascorbic acid-2-phosphate/10 nM dexamethasone).
As above, cells were treated either with medium only (“no-additions”; NA)+/−inhibitors, or with the GAD-medium+/−inhibitors. The inhibitors used were PJ34 and minocyclin (MC) at 10 μM, 1 μM and 0.1 μM.
The methodology was the same as that described in example 4.

[5] = tested on: bovine vascular smooth muscle cells (bVSMCs); assay: MTT cell viability assay, bVSMCs with or without GAD medium, 7 or 9 days (Example 5); assay type: cell-based
Description: As above, cells were treated either with medium only (“no-additions”; NA)+/−inhibitors, or with the GAD-medium+/−inhibitors. […] Additionally, an MTT assay was performed as a measure of cell viability/proliferation. Bovine VSMCs were seeded in 96 well plates and cultured in M199/20% FCS for 1 day. Then, the cells were incubated with inhibitor concentrations of 10 μM, 1 μM and 0.1 μM (in M199 medium+5% FBS). […] Then, the MTT assay was performed.

[6] = tested on: human vascular smooth muscle cells (hVSMCs); assay: o-Cresolphthalein Ca2+ assay, hVSMC Ca/P calcification model (Examples 7-9); assay type: cell-based; conditions: hVSMCs, 6 days; PJ34 10 μM; minocycline and cilostazol 0.5, 1 and 2 μM
Description: (§2) Primary hVSMCs were cultured in M199 media containing FBS (M199/5% FBS). They were plated at a known cell density, allowed to grow for 24 hours and then treated with control (DMSO only) or calcification media (DMSO containing 2.7 mM Calcium+2.5 mM phosphate)+/−inhibitors. After 6 days, calcification was assessed using the o-Cresolphthalein assay for quantification of Ca^2+ deposition and a BioRad protein assay for protein content.
Medium+/−inhibitors was exchanged every 2-3 days.
as §2, with “8” for “6”, “using” for “using the”
All of the compounds tested were used at a concentration of 3 μM. Medium+/−inhibitors was exchanged every 2-3 days.
as §2, with “phosphate)+/−compounds.” for “phosphate)+/−inhibitors.”, “8” for “6”, “using” for “using the”
These concentrations were chosen to mimic the systemic concentrations of these drugs following patient dosing according to the dose schedule in the prescribing information for each drug. Medium+/−inhibitors was exchanged every 2-3 days.

[7] = tested on: PARP produced by a mammalian cell; conditions: have been shown; cited from earlier work
[8] = human, in vivo
[9] = cited from earlier work

CN(C)CC(=O)Nc1ccc2[nH]c(=O)c3ccccc3c2c1.Cl [PJ34, N-(6-Oxo-5,6-dihydrophenanthridin-2-yl)-(N,N-dimethylamino)acetamide hydrochloride]
Cell viability of bVSMCs after seven days (MTT signal, relative to control) ([1]; 0.5 uM): 102.59 | Cell viability of bVSMCs after seven days (MTT signal, relative to control) ([1]; 1 uM): 98.89 | Cell viability of bVSMCs after seven days (MTT signal, relative to control) ([1]; 2 uM): 92.33 | Cell viability of bVSMCs after seven days (MTT signal, relative to control) ([1]; 5 uM): 95.74 | Cell viability of bVSMCs after seven days (MTT signal, relative to control) ([1]; 10 uM): 97.07 | Cell viability of bVSMCs after seven days (MTT signal, relative to control) ([1]; 20 uM): 99.71 | Cell viability of bVSMCs after seven days (MTT signal, relative to control) ([1]; 50 uM): 80.83* | Cell viability of bVSMCs after seven days (MTT signal, relative to control) ([1]; 100 uM): 53.72* | Toxicity to bVSMCs (MTT assay, in words) ([1]; at 50 and 100 μM): toxic | Cell death in bVSMCs (FIG. 4A and example 2) ([1]; bVSMCs): induce some cell death | Cell viability by MTT, percent of control ([2]; 0.5 uM): 106.63 | Cell viability by MTT, percent of control ([2]; 1 uM): 88.38 | Cell viability by MTT, percent of control ([2]; 2 uM): 84.08 | Cell viability by MTT, percent of control ([2]; 5 uM): 95.65 | Cell viability by MTT, percent of control ([2]; 10 uM): 77.14 | Cell viability by MTT, percent of control ([2]; 20 uM): 74.86 | Cell viability by MTT, percent of control ([2]; 50 uM): 60.33* | Cell viability by MTT, percent of control ([2]; 100 uM): 37.30* | Toxicity to HMMs (in words) ([2]; at a concentration of 100 μM): most toxic | Degree of mineralization judged by eye (Alizarin Red S, FIG. 6) [3]: slightly worse | Calcium levels (mass of calcium, FIG. 7B) compared to no inhibitors ([4]; GAD-treated bVSMCs, 10 μM, 7 d): elevate calcium levels | Normalised calcium levels (mass of calcium per mass of protein, FIG. 9B) ([4]; GAD-treated bVSMCs, 10 μM, 7 d): elevate calcium levels | Effect on calcification (in words, discussion of Example 5) ([4]; bVSMC GAD model): encouraging calcification | Ca^2+ concentration found in bVSMCs, mean ([4]; nine days, no GAD, 0.1 μM): 1.438 μg calcium/ml | Ca^2+ concentration found in bVSMCs, mean ([4]; nine days, no GAD, 1 μM): 1.179 μg calcium/ml | Ca^2+ concentration found in bVSMCs, mean ([4]; nine days, no GAD, 10 μM): 1.061 μg calcium/ml | Ca^2+ concentration found in bVSMCs, mean ([4]; nine days, with GAD, 0.1 μM): 22.69 μg calcium/ml | Ca^2+ concentration found in bVSMCs, mean ([4]; nine days, with GAD, 1 μM): 132.87 μg calcium/ml | Ca^2+ concentration found in bVSMCs, mean ([4]; nine days, with GAD, 10 μM): 66.68 μg calcium/ml | Ca^2+ concentration found in bVSMCs, mean ([4]; seven days, no GAD, 0.1 μM): 0.612 μg calcium/ml | Ca^2+ concentration found in bVSMCs, mean ([4]; seven days, no GAD, 1 μM): 0.565 μg calcium/ml | Ca^2+ concentration found in bVSMCs, mean ([4]; seven days, no GAD, 10 μM): 0.561 μg calcium/ml | Ca^2+ concentration found in bVSMCs, mean ([4]; seven days, with GAD, 0.1 μM): 1.84 μg calcium/ml | Ca^2+ concentration found in bVSMCs, mean ([4]; seven days, with GAD, 1 μM): 4.06 μg calcium/ml | Ca^2+ concentration found in bVSMCs, mean ([4]; seven days, with GAD, 10 μM): 4.93 μg calcium/ml | Cell viability (%) mean ([5]; nine days, no GAD, 0.1 μM): 99.88% | Cell viability (%) mean ([5]; nine days, no GAD, 1 μM): 97.1% | Cell viability (%) mean ([5]; nine days, no GAD, 10 μM): 98.3% | Cell viability (%) mean ([5]; nine days, with GAD, 0.1 μM): 69.43% | Cell viability (%) mean ([5]; nine days, with GAD, 1 μM): 59.06% | Cell viability (%) mean ([5]; nine days, with GAD, 10 μM): 69.43% | Cell viability (%) mean ([5]; seven days, no GAD, 0.1 μM): 93.81% | Cell viability (%) mean ([5]; seven days, no GAD, 1 μM): 97.16% | Cell viability (%) mean ([5]; seven days, no GAD, 10 μM): 99.25% | Cell viability (%) mean ([5]; seven days, with GAD, 0.1 μM): 96.46% | Cell viability (%) mean ([5]; seven days, with GAD, 1 μM): 94.61% | Cell viability (%) mean ([5]; seven days, with GAD, 10 μM): 90.03% | Calcium levels (mass of calcium, FIG. 17) versus DMSO Ca+P positive control [6]: reduce the calcium levels | Normalised calcium levels (mass of calcium per mass of protein, FIG. 19) [6]: lower calcium levels significantly | Inhibition of PARP produced by a mammalian cell [7]: inhibit PARP

CN(C)c1ccc(O)c2c1C[C@H]1C[C@H]3[C@H](N(C)C)C(O)=C(C(N)=O)C(=O)[C@@]3(O)C(O)=C1C2=O [minocycline]
Toxicity to bVSMCs (MTT assay, in words) ([1]; at the concentrations tested (0.5 to 100 μM)): non-toxic | inhibition at 1 µM ([4]; Bos taurus, 216 h, bVSMCs, GAD medium, nine days, 1 μM, read-out: Reduction of Ca^2+ deposition compared to no potential inhibitor): ~38% | inhibition at 10 µM ([4]; Bos taurus, 216 h, bVSMCs, GAD medium, nine days, 10 μM, read-out: Reduction of Ca^2+ deposition compared to no potential inhibitor): ~81% | Concentration at which calcification is inhibited (as low as) ([4]; bVSMC GAD model, Example 5): 1 µM | Ca^2+ concentration found in bVSMCs, mean ([4]; nine days, no GAD, 0.1 μM): 1.484 μg calcium/ml | Ca^2+ concentration found in bVSMCs, mean ([4]; nine days, no GAD, 1 μM): 1.327 μg calcium/ml | Ca^2+ concentration found in bVSMCs, mean ([4]; nine days, no GAD, 10 μM): 0.925 μg calcium/ml | Ca^2+ concentration found in bVSMCs, mean ([4]; nine days, with GAD, 0.1 μM): 26.16 μg calcium/ml | Ca^2+ concentration found in bVSMCs, mean ([4]; nine days, with GAD, 1 μM): 21.35 μg calcium/ml | Ca^2+ concentration found in bVSMCs, mean ([4]; nine days, with GAD, 10 μM): 3.74 μg calcium/ml | Ca^2+ concentration found in bVSMCs, mean ([4]; seven days, no GAD, 0.1 μM): 0.654 μg calcium/ml | Ca^2+ concentration found in bVSMCs, mean ([4]; seven days, no GAD, 1 μM): 0.595 μg calcium/ml | Ca^2+ concentration found in bVSMCs, mean ([4]; seven days, no GAD, 10 μM): 0.523 μg calcium/ml | Ca^2+ concentration found in bVSMCs, mean ([4]; seven days, with GAD, 0.1 μM): 1.79 μg calcium/ml | Ca^2+ concentration found in bVSMCs, mean ([4]; seven days, with GAD, 1 μM): 2 μg calcium/ml | Ca^2+ concentration found in bVSMCs, mean ([4]; seven days, with GAD, 10 μM): 2.38 μg calcium/ml | Cell viability (%) mean ([5]; nine days, no GAD, 1 μM): 96.64% | Cell viability (%) mean ([5]; nine days, no GAD, 10 μM): 105.1% | Cell viability (%) mean ([5]; nine days, with GAD, 0.1 μM): 74.53% | Cell viability (%) mean ([5]; nine days, with GAD, 1 μM): 72.42% | Cell viability (%) mean ([5]; nine days, with GAD, 10 μM): 105.89% | Drop off in formazan production (MTT) in the GAD-treatment group ([5]; nine days, with GAD, 10 μM): not observed | Cell viability (%) mean ([5]; seven days, no GAD, 0.1 μM): 94.56% | Cell viability (%) mean ([5]; seven days, no GAD, 1 μM): 91.09% | Cell viability (%) mean ([5]; seven days, no GAD, 10 μM): 95.49% | Cell viability (%) mean ([5]; seven days, with GAD, 1 μM): 96.84% | Cell viability (%) mean ([5]; seven days, with GAD, 10 μM): 102.07% | dosage needed to reach the concentration of 0.46 micrograms/mL [8]: approximately 20 mg | maximum concentration (Cmax) in a patient's bloodstream ([9]; 50 mg oral dose): 0.65 micrograms/mL | half-life in the body ([9]; in vivo): approximately 12 hours
